The results in this text go back to paper PMC7221892, “In Vitro and in Vivo Activity of mTOR Kinase and PI3K Inhibitors Against Leishmania donovani and Trypanosoma brucei” (Molecules, 2020).

The subject of series [1] is intracellular L. donovani. As to the kind of experiment: Intracellular L. donovani in THP-1 cells, dose-dilution high-content imaging assay. The conditions noted are these: for activity confirmation in dose-dilution assays: intracellular L. donovani EC50 / THP-1 CC50, result in words; for EC50: Leishmania donovani, THP-1 cells infected with L. donovani, 72 h, duplicate measurements, read-out: Intracellular L. donovani EC50 ± SD; for Selectivity Index (SI): SI = THP-1 CC50/Intracellular L. donovani EC50. The series is classed as cell-based. How it is done:
(§1) PMA-treated THP-1 human monocytic cells were seeded at 0.8 × 10^4 cells per well in a 384-well culture plate (Greiner Bio-One, Kremsmünster, Austria) in RPMI-1640 complete medium supplemented with 10% FBS. After 48 h of incubation at 37 °C in the presence of 5% CO2, the promastigotes of L. donovani that were incubated with lectin for 30 min at 28 °C were added to the cells at a parasite to cell ratio of 20:1. […] The negative control consisted of THP-1 infected with the parasite with only 0.5% DMSO. After 72 h, the cells that were infected and treated with the drug were washed with serum-free RPMI-1640 medium. The cells and parasites were stained using 5 μM DRAQ5 and 4% PFA. The images were acquired based on reading using an Operetta® automated microscope (PerkinElmer, Inc., Waltham, MA 02451 USA). They were further analyzed using Columbus^TM (PerkinElmer, Inc. Waltham, MA, USA) software to quantify parasite numbers, host cell numbers, and infection ratios. In brief, large-sized nucleus of host cells was first detected using Draq-5 (Thermo Fisher, Rockford, IL, USA) signal and the host cell boundary masking was performed using the low-intensity signals from cytosols (additional feature of Draq-5). Then the small-sized nucleus signal by Draq-5 was used to identify parasites within the area of masked host cell. Infection ratio (IR) was determined with the value of the number of infected cells divided by total number of cells and the average number of parasites per macrophage (P/φ) was defined by the value of the number of parasites divided by the number of infected cells in the acquired image.
(§2) All of the half maximal effective concentrations (EC50) and the half maximal cytotoxic concentrations (CC50) values were calculated using two independent experiments. The dose-response curves were fitted using GraphPad Prism 6 software (GraphPad Software, San Diego, CA, USA) by using a sigmoidal dose-response equation with a variable hill slope option.

Series [2] concerns T. b. brucei Lister 427 BSF. Kind of series: T. b. brucei Lister 427 bloodstream form growth inhibition (resazurin). It counts as cell-based. The conditions noted are these: Trypanosoma brucei, 72 h, 3 days exposure, read-out: T. brucei Lister 427 BSF EC50 ± SD. As to the method:
(§3) L. donovani promastigote and T. b. brucei Lister 427 BSF growth inhibition were assayed by measuring the conversion of resazurin to resorufin. The assays were performed in 384-well plates that were seeded with L. donovani promastigotes or T. brucei 427 BSF (5 × 10^4 cells per well). After seeding, the parasites were exposed to the compounds for 3 days. Resazurin sodium salt (200 μM; R7017; Sigma-Aldrich, St. Louis, MO, USA) was then added, and the samples were incubated for 5 h. After incubation, the parasites were fixed using 4% paraformaldehyde, and the plates were analyzed using a Victor3^TM plate reader (PerkinElmer, Inc., Waltham, MA, USA) at 590 nm (emission) and 530 nm (excitation). […] Pentamidine was used for the T. b. brucei Lister 427 BSF growth inhibition assay.
as §2
For orientation: Alamar Blue is a resazurin reagent that responds to reducing activity.

In series [3] the test system is L. donovani promastigotes. Kind of series: L. donovani promastigote growth inhibition (resazurin). It counts as cell-based. The settings on record: Leishmania donovani, 72 h, 3 days exposure, read-out: L. donovani Promastigote EC50 ± SD. As to the method:
as §3, §2

Series [4] is described as follows: Host cell cytotoxicity (CC50) in infected THP-1 cells, dose-dilution assay. The series is classed as cell-based. The conditions noted are these: human, infected THP-1 host cells, read-out: THP-1 Cell CC50 ± SD. How it is done: as §1, §2
Series [5] concerns intracellular L. donovani. As to the kind of experiment: Pilot high-content screening against intracellular L. donovani at 10 μM. The series is classed as cell-based. The settings on record: screening concentration 10 µM. How it is done: as §1, with “image. The average IR value of the negative control wells was calculated as 0.53. Compounds selected based on the screening results were further assessed in a dose-dilution manner (two-fold serial dilution for 20 points starting from 100 μM) using the same method.” for “image.”

Series [6] relates to L. donovani. Kind of series: VL mouse model (L. donovani-infected BALB/c mice). The series is classed as in vivo. The settings on record: miltefosine 30, Torin2 15, dactolisib 50, NVP-BGT226 5 mg/kg. How it is done:
The highest dose for each compound without showing adverse effects was selected based on literature search. The vehicle for the compounds was 5% N-methylpyrrolidone, 15% polyvinylpyrrolidone, and 80% deionized water. Drug dosing solutions were freshly prepared each day. All drugs were administered once daily for 5 days via the per os route. On day 16 post-infection, all animals were humanely euthanized and assessed microscopically using Giemsa-stained liver imprints. Parasite burdens were measured by counting (blinded to treatment) the number of amastigotes per 1000 cell nuclei and multiplying this number by the liver weight (mg) (Leishman-Donovan Unit: LDU). The LDU values for the drug-treated samples were compared to those of the untreated samples, and the percent inhibition values were calculated.

In the case of `COc1cc2c(Oc3ccc4[nH]c(C)cc4c3F)ncnc2cc1OCCCN1CCCC1` [cediranib], the “activity confirmation in dose-dilution assays” value (“activity confirmation” below) in series [1] is “either low activity (half maximal effective concentration, EC50) or high toxicity (CC50)”.

For `CC(C)n1nc(-c2ccc3oc(N)nc3c2)c2c(N)ncnc21` [Sapanisertib], the EC50 – broadly, the concentration at which the effect is half-maximal – in series [1] came out at 6.39 ± 1.12 µM; in series [2] it was 5.34 ± 0.98 µM; in series [3], 7.46 ± 1.04 µM. Also, the CC50 (usually the concentration that lowers cell viability or growth by half) at 72 h in series [4] was more than 100 µM.

With `[O-][S+](c1ccccc1)c1ccc2nnnn2n1` (stereo not drawn) [Ro 106–9920], the “activity confirmation” value in series [1] was “confirmed to be active”.

In the case of `CN1[C@@H]2CC[C@H]1CC(OC(c1ccccc1)c1ccc(Cl)cc1)C2` (stereo partly drawn) [3-CPMT], the “activity confirmation” value in series [1] is listed as “either low activity (half maximal effective concentration, EC50) or high toxicity (CC50)”.

With `CN(C)C/C=C/C(=O)Nc1cc2c(Nc3ccc(F)c(Cl)c3)ncnc2cc1O[C@H]1CCOC1` [afatinib], the “activity confirmation” value in series [1] is given as “either low activity (half maximal effective concentration, EC50) or high toxicity (CC50)”.

`CO[C@H]1C[C@@H]2CC[C@@H](C)[C@@](O)(O2)C(=O)C(=O)N2CCCC[C@H]2C(=O)O[C@H]([C@H](C)C[C@@H]2CC[C@@H](OC(=O)C(C)(CO)CO)[C@H](OC)C2)CC(=O)[C@H](C)/C=C(\C)[C@@H](O)[C@@H](OC)C(=O)[C@H](C)C[C@H](C)/C=C/C=C/C=C/1C` [temsirolimus]: in series [5], the “inhibition of intracellular parasite survival in screening” value (“inhibition … in screening” for short) is recorded as “did not show potent inhibition”.

Regarding `CNC(=O)Nc1ccc(-c2nc(N3CC4CCC(C3)O4)c3cnn(C4CCC5(CC4)OCCO5)c3n2)cc1` [WYE-125132], the EC50 in series [1] amounted to 2.26 ± 0.71 µM; in series [2] it was 0.12 ± 0.01 µM; in series [3], 0.36 ± 0.04 µM. Besides, the “Selectivity Index (SI)” value in series [1] is recorded as 19. Further, the CC50 at 72 h in series [4] is 43.3 ± 2.7 µM.

As for `CC(C)c1ccc(C(=O)c2cccs2)c(SCCCCCCCCN(C)C)n1` [Y29794], in series [1], the “activity confirmation” value is recorded as “confirmed to be active”.

Regarding `CCn1nnc2c(N3CCOCC3)nc(-c3ccc(NC(=O)Nc4ccc(C(=O)N5CCN(C)CC5)cc4)cc3)nc21` [PKI-402], the EC50 in series [1] came out at 13.4 ± 2.35 µM; in series [2], 0.26 ± 0.02 µM; in series [3] it was 0.49 ± 0.22 µM. Further, in series [1], the “Selectivity Index (SI)” value is given as 2.1. The CC50 at 72 h in series [4] was found to be 28.5 ± 1.2 µM.

For `S=C=Nc1cccc(C2(N3CCCCC3)CCCCC2)c1` [metaphit], the “activity confirmation” value in series [1] is recorded as “confirmed to be active”.

With `CO[C@H]1C[C@@H]2CC[C@@H](C)[C@@](O)(O2)C(=O)C(=O)N2CCCC[C@H]2C(=O)O[C@H]([C@H](C)C[C@@H]2CC[C@@H](O)[C@H](OC)C2)CC(=O)[C@H](C)/C=C(\C)[C@@H](O)[C@@H](OC)C(=O)[C@H](C)C[C@H](C)/C=C/C=C/C=C/1C` [rapamycin], in series [5], the “inhibition … in screening” value is “did not show potent inhibition”.

For the molecule `C[C@@H]1[C@H](O)[C@@H](C)/C=C/C=C/C=C/C=C/C=C/C=C/C=C/[C@H](O[C@@H]2O[C@H](C)[C@@H](O)[C@H](N)[C@@H]2O)C[C@@H]2O[C@](O)(C[C@@H](O)C[C@@H](O)[C@H](O)CC[C@@H](O)C[C@@H](O)CC(=O)O[C@H]1C)C[C@H](O)[C@H]2C(=O)O` [Amphotericin B], in series [1], the EC50 amounted to 0.34 ± 0.04 µM and the “Selectivity Index (SI)” value is given as more than 11.8. Also, in series [3], the EC50 was determined as 0.015 ± 0.003 µM. For the same molecule, the CC50 at 72 h in series [4] was more than 4 µM.

As for `Fc1ccc(C(OCCN2CCN(CCCc3ccccc3)CC2)c2ccc(F)cc2)cc1` [GBR12909], the “activity confirmation” value in series [1] is listed as “either low activity (half maximal effective concentration, EC50) or high toxicity (CC50)”.

Regarding `CO[C@H]1C[C@@H]2CC[C@@H](C)[C@@](O)(O2)C(=O)C(=O)N2CCCC[C@H]2C(=O)O[C@H]([C@H](C)C[C@@H]2CC[C@@H](OP(C)(C)=O)[C@H](OC)C2)CC(=O)[C@H](C)/C=C(\C)[C@@H](O)[C@@H](OC)C(=O)[C@H](C)C[C@H](C)/C=C/C=C/C=C/1C` [deforolimus], the “inhibition … in screening” value in series [5] is on record as “did not show potent inhibition”.

Consider `CO[C@H]1C[C@@H]2CC[C@@H](C)[C@@](O)(O2)C(=O)C(=O)N2CCCC[C@H]2C(=O)O[C@H]([C@H](C)C[C@@H]2CC[C@@H](OCCO)[C@H](OC)C2)CC(=O)[C@H](C)/C=C(\C)[C@@H](O)[C@@H](OC)C(=O)[C@H](C)C[C@H](C)/C=C/C=C/C=C/1C` [everolimus], for which the “inhibition … in screening” value in series [5] is “did not show potent inhibition”.

`CCCCCCCCCCCCCCCCOP(=O)([O-])OCC[N+](C)(C)C` [Miltefosine]: in series [1], the EC50 amounted to 4.81 ± 0.81 µM. In addition, in series [4], the CC50 at 72 h was more than 40 µM. Moreover, in series [6] (liver parasite burden vs vehicle, per os 5 days), the “Inhibition of L. donovani In Vivo (%) (Mean ± SD)” value is 87 ± 2.13%. Also, the “LDU in the Liver (Mean ± SD)” value in series [6] (once daily per os for 5 days from day 7 post-infection) was 142 ± 24 LDU.

With `N=C(N)c1ccc(OCCCCCOc2ccc(C(=N)N)cc2)cc1` [Pentamidine], the EC50 in series [2] worked out at 0.15 ± 0.01 µM.

Consider `Cc1cc(Nc2cc(N3CCN(C)CC3)nc(/C=C/c3ccccc3)n2)n[nH]1` [ENMD-2076], for which, in series [1], the “activity confirmation” value is given as “either low activity (half maximal effective concentration, EC50) or high toxicity (CC50)”.

For the molecule `COc1ccccc1C1(O)CCN(CCCn2c3ccccc3c3ccccc32)CC1` [NNC05–2090], the “activity confirmation” value in series [1] is “confirmed to be active”.

In the case of `COc1ccc(CCCOC(Cn2ccnc2)c2ccc(OC)cc2)cc1` (stereo not drawn) [SKF 96365], in series [1], the “activity confirmation” value is reported as “confirmed to be active”.

In the case of `O=S(=O)(NCCNC/C=C/c1ccc(Br)cc1)c1cccc2cnccc12` [H89], the “activity confirmation” value in series [1] is given as “either low activity (half maximal effective concentration, EC50) or high toxicity (CC50)”.

`CC[C@H](Nc1ncnc2[nH]cnc12)c1nc2cccc(F)c2c(=O)n1-c1ccccc1` [CAL-101]: the “inhibition … in screening” value in series [5] is “no direct effects on the parasite”.
